Tested on: 266295-075-R-J1-PDC spheroid viability
Test: Anticancer human tumor 266295-075-R-J1-PDC patient-derived head and neck squamous carcinoma cell line growth inhibition [POLQ]
Conditions: spheroids with HUVEC and MSC; for IC50: curve of first compound; for viability, T/C: stronger effect = lower value
Summary of the method: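 Patient-derived tumour cells were co-cultured with HUVEC and mesenchymal stem cells as multicellular spheroids at 37 °C. They were treated with POLQ inhibitors (novobiocin, ART-558, RP6685) alone or combined with other agents. Top concentrations were at or near clinical Cmax (otherwise 10 microM; SN-38 at 1 microM), decreasing in half-log steps.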

[1] = second compound 0.0316 µM, first compound 0.00316 µM
[2] = second compound 0.0316 µM, first compound 0.01 µM
[3] = second compound 0.0316 µM, first compound 0.0316 µM
[4] = second compound 0.0316 µM, first compound 0.1 µM
[5] = second compound 0.0316 µM, first compound 0.316 µM
[6] = second compound 0.0316 µM, first compound 1 µM
[7] = second compound 0.1 µM, first compound 0.00316 µM
[8] = second compound 0.1 µM, first compound 0.01 µM
[9] = second compound 0.1 µM, first compound 0.0316 µM
[10] = second compound 0.1 µM, first compound 0.1 µM
[11] = second compound 0.1 µM, first compound 0.316 µM
[12] = second compound 0.1 µM, first compound 1 µM
[13] = second compound 0.316 µM, first compound 0.00316 µM
[14] = second compound 0.316 µM, first compound 0.01 µM
[15] = second compound 0.316 µM, first compound 0.0316 µM
[16] = second compound 0.316 µM, first compound 0.1 µM
[17] = second compound 0.316 µM, first compound 0.316 µM
[18] = second compound 0.316 µM, first compound 1 µM
[19] = second compound 1 µM, first compound 0.00316 µM
[20] = second compound 1 µM, first compound 0.01 µM
[21] = second compound 1 µM, first compound 0.0316 µM
[22] = second compound 1 µM, first compound 0.1 µM
[23] = second compound 1 µM, first compound 0.316 µM
[24] = second compound 1 µM, first compound 1 µM
[25] = second compound 3.16 µM, first compound 0.00316 µM
[26] = second compound 3.16 µM, first compound 0.01 µM
[27] = second compound 3.16 µM, first compound 0.0316 µM
[28] = second compound 3.16 µM, first compound 0.1 µM
[29] = second compound 3.16 µM, first compound 0.316 µM
[30] = second compound 3.16 µM, first compound 1 µM
[31] = second compound 10 µM, first compound 0.00316 µM
[32] = second compound 10 µM, first compound 0.01 µM
[33] = second compound 10 µM, first compound 0.0316 µM
[34] = second compound 10 µM, first compound 0.1 µM
[35] = second compound 10 µM, first compound 0.316 µM
[36] = second compound 10 µM, first compound 1 µM
[37] = second compound 0.0316 µM, first compound 3.16 µM
[38] = second compound 0.0316 µM, first compound 10 µM
[39] = second compound 0.1 µM, first compound 3.16 µM
[40] = second compound 0.1 µM, first compound 10 µM
[41] = second compound 0.316 µM, first compound 3.16 µM
[42] = second compound 0.316 µM, first compound 10 µM
[43] = second compound 1 µM, first compound 3.16 µM
[44] = second compound 1 µM, first compound 10 µM
[45] = second compound 3.16 µM, first compound 3.16 µM
[46] = second compound 3.16 µM, first compound 10 µM
[47] = second compound 10 µM, first compound 3.16 µM
[48] = second compound 10 µM, first compound 10 µM
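Also: spheroids exposed to compounds for seven days before readout.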

C=CCn1c(=O)c2cnc(Nc3ccc(N4CCN(C)CC4)cc3)nc2n1-c1cccc(C(C)(C)O)n1 + Nc1ccc(C#CCN(C(=O)Cc2ncc(C(F)(F)F)cc2C(F)(F)F)c2ccc(F)cc2)nn1
IC50 (second compound 0.0316 µM): > 1 µM
IC50 (second compound 0.1 µM): > 1 µM
IC50 (second compound 0.316 µM): > 1 µM
IC50 (second compound 1 µM): > 1 µM
IC50 (second compound 3.16 µM): > 1 µM
IC50 (second compound 10 µM): > 1 µM
viability, T/C [1]: 102%
viability, T/C [2]: 90.4%
viability, T/C [3]: 101%
viability, T/C [4]: 89.2%
viability, T/C [5]: 86.2%
viability, T/C [6]: 63.8%
viability, T/C [7]: 114%
viability, T/C [8]: 95.8%
viability, T/C [9]: 88.1%
viability, T/C [10]: 125%
viability, T/C [11]: 84.1%
viability, T/C [12]: 68.8%
viability, T/C [13]: 98.7%
viability, T/C [14]: 99.1%
viability, T/C [15]: 84.1%
viability, T/C [16]: 85.2%
viability, T/C [17]: 69.3%
viability, T/C [18]: 65.3%
viability, T/C [19]: 93%
viability, T/C [20]: 96.2%
viability, T/C [21]: 87.7%
viability, T/C [22]: 101%
viability, T/C [23]: 81.3%
viability, T/C [24]: 54.3%
viability, T/C [25]: 102%
viability, T/C [26]: 106%
viability, T/C [27]: 85.2%
viability, T/C [28]: 77.3%
viability, T/C [29]: 72.4%
viability, T/C [30]: 63.5%
viability, T/C [31]: 115%
viability, T/C [32]: 90.6%
viability, T/C [33]: 91.5%
viability, T/C [34]: 109%
viability, T/C [35]: 81.2%
viability, T/C [36]: 57.3%

CCCS(=O)(=O)Nc1ccc(F)c(C(=O)c2c[nH]c3ncc(-c4ccc(Cl)cc4)cc23)c1F + Nc1ccc(C#CCN(C(=O)Cc2ncc(C(F)(F)F)cc2C(F)(F)F)c2ccc(F)cc2)nn1
IC50 (second compound 0.0316 µM): > 10 µM
IC50 (second compound 0.1 µM): > 10 µM
IC50 (second compound 0.316 µM): > 10 µM
IC50 (second compound 1 µM): > 10 µM
IC50 (second compound 3.16 µM): > 10 µM
IC50 (second compound 10 µM): > 10 µM
viability, T/C [3]: 97.9%
viability, T/C [4]: 115%
viability, T/C [5]: 115%
viability, T/C [6]: 102%
viability, T/C [37]: 158%
viability, T/C [38]: 160%
viability, T/C [9]: 101%
viability, T/C [10]: 105%
viability, T/C [11]: 99.2%
viability, T/C [12]: 116%
viability, T/C [39]: 156%
viability, T/C [40]: 145%
viability, T/C [15]: 102%
viability, T/C [16]: 103%
viability, T/C [17]: 82.3%
viability, T/C [18]: 105%
viability, T/C [41]: 143%
viability, T/C [42]: 131%
viability, T/C [21]: 122%
viability, T/C [22]: 92.5%
viability, T/C [23]: 115%
viability, T/C [24]: 93.8%
viability, T/C [43]: 146%
viability, T/C [44]: 145%
viability, T/C [27]: 84.8%
viability, T/C [28]: 135%
viability, T/C [29]: 121%
viability, T/C [30]: 109%
viability, T/C [45]: 142%
viability, T/C [46]: 160%
viability, T/C [33]: 119%
viability, T/C [34]: 104%
viability, T/C [35]: 104%
viability, T/C [36]: 119%
viability, T/C [47]: 143%
viability, T/C [48]: 171%

CNCc1ccc(-c2[nH]c3cc(F)cc4c3c2CCNC4=O)cc1 + Nc1ccc(C#CCN(C(=O)Cc2ncc(C(F)(F)F)cc2C(F)(F)F)c2ccc(F)cc2)nn1
IC50 (second compound 0.0316 µM): > 10 µM
IC50 (second compound 0.1 µM): > 10 µM
IC50 (second compound 0.316 µM): > 10 µM
IC50 (second compound 1 µM): > 10 µM
IC50 (second compound 3.16 µM): > 10 µM
IC50 (second compound 10 µM): > 10 µM
viability, T/C [3]: 98.8%
viability, T/C [4]: 89.6%
viability, T/C [5]: 93.5%
viability, T/C [6]: 103%
viability, T/C [37]: 101%
viability, T/C [38]: 113%
viability, T/C [9]: 116%
viability, T/C [10]: 97%
viability, T/C [11]: 95.6%
viability, T/C [12]: 83.2%
viability, T/C [39]: 102%
viability, T/C [40]: 111%
viability, T/C [15]: 102%
viability, T/C [16]: 107%
viability, T/C [17]: 101%
viability, T/C [18]: 87.2%
viability, T/C [41]: 98.4%
viability, T/C [42]: 70.2%
viability, T/C [21]: 93.3%
viability, T/C [22]: 86.9%
viability, T/C [23]: 123%
viability, T/C [24]: 87.2%
viability, T/C [43]: 111%
viability, T/C [44]: 119%
viability, T/C [27]: 88.1%
viability, T/C [28]: 97.9%
viability, T/C [29]: 81.9%
viability, T/C [30]: 97.8%
viability, T/C [45]: 100%
viability, T/C [46]: 105%
viability, T/C [33]: 92.8%
viability, T/C [34]: 94.8%
viability, T/C [35]: 99.5%
viability, T/C [36]: 91%
viability, T/C [47]: 87%
viability, T/C [48]: 131%

COc1cccc(OCCCN)c1-c1cc(Nc2cnc(C#N)cn2)n[nH]1 + Nc1ccc(C#CCN(C(=O)Cc2ncc(C(F)(F)F)cc2C(F)(F)F)c2ccc(F)cc2)nn1
IC50 (second compound 0.0316 µM): > 1 µM
IC50 (second compound 0.1 µM): > 1 µM
IC50 (second compound 0.316 µM): > 1 µM
IC50 (second compound 1 µM): > 1 µM
IC50 (second compound 3.16 µM): > 1 µM
IC50 (second compound 10 µM): > 1 µM
viability, T/C [1]: 89.6%
viability, T/C [2]: 110%
viability, T/C [3]: 81.2%
viability, T/C [4]: 77.5%
viability, T/C [5]: 64.5%
viability, T/C [6]: 64.4%
viability, T/C [7]: 91.6%
viability, T/C [8]: 106%
viability, T/C [9]: 84.1%
viability, T/C [10]: 69.3%
viability, T/C [11]: 72%
viability, T/C [12]: 73.5%
viability, T/C [13]: 106%
viability, T/C [14]: 91.9%
viability, T/C [15]: 73.8%
viability, T/C [16]: 76.1%
viability, T/C [17]: 60.4%
viability, T/C [18]: 71.2%
viability, T/C [19]: 99.2%
viability, T/C [20]: 95.9%
viability, T/C [21]: 74.5%
viability, T/C [22]: 66.5%
viability, T/C [23]: 61.9%
viability, T/C [24]: 60.8%
viability, T/C [25]: 120%
viability, T/C [26]: 101%
viability, T/C [27]: 73.2%
viability, T/C [28]: 72.8%
viability, T/C [29]: 70.2%
viability, T/C [30]: 61%
viability, T/C [31]: 94.6%
viability, T/C [32]: 95%
viability, T/C [33]: 87.8%
viability, T/C [34]: 67.3%
viability, T/C [35]: 62.1%
viability, T/C [36]: 68.9%

O=C(c1cc(Cc2n[nH]c(=O)c3ccccc23)ccc1F)N1CCN(C(=O)C2CC2)CC1 + Nc1ccc(C#CCN(C(=O)Cc2ncc(C(F)(F)F)cc2C(F)(F)F)c2ccc(F)cc2)nn1
IC50 (second compound 0.0316 µM): > 10 µM
IC50 (second compound 0.1 µM): > 10 µM
IC50 (second compound 0.316 µM): > 10 µM
IC50 (second compound 1 µM): > 10 µM
IC50 (second compound 3.16 µM): > 10 µM
IC50 (second compound 10 µM): > 10 µM
viability, T/C [3]: 105%
viability, T/C [4]: 103%
viability, T/C [5]: 115%
viability, T/C [6]: 94.1%
viability, T/C [37]: 108%
viability, T/C [38]: 89%
viability, T/C [9]: 96.6%
viability, T/C [10]: 88.2%
viability, T/C [11]: 97.6%
viability, T/C [12]: 92.9%
viability, T/C [39]: 105%
viability, T/C [40]: 89.5%
viability, T/C [15]: 124%
viability, T/C [16]: 92.8%
viability, T/C [17]: 77.1%
viability, T/C [18]: 100%
viability, T/C [41]: 80.6%
viability, T/C [42]: 99.4%
viability, T/C [21]: 90.1%
viability, T/C [22]: 106%
viability, T/C [23]: 91.9%
viability, T/C [24]: 97.7%
viability, T/C [43]: 85.7%
viability, T/C [44]: 87%
viability, T/C [27]: 92.7%
viability, T/C [28]: 83.9%
viability, T/C [29]: 91%
viability, T/C [30]: 106%
viability, T/C [45]: 106%
viability, T/C [46]: 98.4%
viability, T/C [33]: 110%
viability, T/C [34]: 99.7%
viability, T/C [35]: 96.3%
viability, T/C [36]: 97.7%
viability, T/C [47]: 77%
viability, T/C [48]: 81.8%
